Measurements as given in patent publication US11453858B2, “Human plasma-like medium” (Whitehead Institute for Biomedical Research, priority 2016, dated 2022).

What was measured:
NOMO1 cells = assay: 5-FU treatment for LC/MS (intracellular 5-FU, FdUMP, FUMP); details: 20 μM 5-FU, 24 hr
ODC domain of UMPS = biological target: T1, ODC domain of UMPS (Homo sapiens, UniProt P11172); details: literature; cited from earlier work
T1 sequence (P11172 1-480): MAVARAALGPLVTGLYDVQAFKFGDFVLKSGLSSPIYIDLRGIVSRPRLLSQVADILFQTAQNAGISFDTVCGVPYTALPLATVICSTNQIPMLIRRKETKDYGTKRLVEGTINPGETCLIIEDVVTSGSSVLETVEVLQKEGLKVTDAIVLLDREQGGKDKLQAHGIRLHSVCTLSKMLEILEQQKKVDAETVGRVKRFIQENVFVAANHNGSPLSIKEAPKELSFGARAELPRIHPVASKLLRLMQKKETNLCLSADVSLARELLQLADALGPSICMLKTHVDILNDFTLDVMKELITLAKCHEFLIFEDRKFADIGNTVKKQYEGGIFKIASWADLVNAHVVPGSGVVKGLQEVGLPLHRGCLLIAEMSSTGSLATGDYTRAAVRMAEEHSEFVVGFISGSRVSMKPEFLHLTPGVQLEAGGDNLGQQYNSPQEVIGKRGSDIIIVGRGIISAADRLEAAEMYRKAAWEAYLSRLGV

recombinant UMPS = biological target: T2, recombinant UMPS (Homo sapiens, UniProt P11172); assay: in vitro UMPS activity assay (LC/MS detection of OMP and UMP); format: biochemical; details: for UMP production by UMPS / abundance of OMP: increasing concentrations of inhibitor
T2 construct: The UMPS gene was amplified from the pDONR223-UMPS template using the primers JC624/JC625; made in house; host or cells: HEK-293T cells, transient transfection, anti-FLAG immunopurification
T2 sequence (P11172 2-480 limits assumed): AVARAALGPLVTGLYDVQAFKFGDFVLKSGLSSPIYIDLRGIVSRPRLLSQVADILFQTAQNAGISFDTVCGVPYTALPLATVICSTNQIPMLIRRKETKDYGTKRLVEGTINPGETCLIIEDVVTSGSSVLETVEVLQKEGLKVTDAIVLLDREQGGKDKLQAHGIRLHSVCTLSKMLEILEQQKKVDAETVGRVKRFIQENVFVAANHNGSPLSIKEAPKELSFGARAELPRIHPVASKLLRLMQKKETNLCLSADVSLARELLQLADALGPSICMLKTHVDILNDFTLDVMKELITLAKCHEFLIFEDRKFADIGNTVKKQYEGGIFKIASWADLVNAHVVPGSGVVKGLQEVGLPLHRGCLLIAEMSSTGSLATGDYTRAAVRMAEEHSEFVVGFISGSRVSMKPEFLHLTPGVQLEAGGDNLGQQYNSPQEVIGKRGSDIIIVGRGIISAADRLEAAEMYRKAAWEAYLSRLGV
Description: An UMPS mutant (Y37A, R155A), which was designed based on a recently deposited structure of the OPRT domain of human UMPS (Protein Data Bank entry 2WNS, chains A and B) (FIG. 12), had no activity and served as a negative control in the assay.
For metabolite profiling of LIMPS activity assay samples, reaction mixtures were extracted as described (see LIMPS activity assay) and 5 μL of each sample was injected for LC/MS analysis as described for profiling media samples, except that the mass spectrometer was operated in full scan, negative ionization mode only.
For orotate, PRPP, OMP, and UMP in UMPS assay samples, all settings as described for the tSIM scan used for FdUMP and FUMP were identical except that the maximum integration time was 200 msec, and the target masses were 155.0088 (corresponding to orotate), 323.0286 (corresponding to UMP), 367.0184 (corresponding to OMP), and 388.9445 (corresponding to PRPP).
For transfection of HEK-293 T cells, 4 million cells were plated in 15 cm culture dishes. After 24 hr, cells were transfected with 15 μg of pLJC2-UMPS-3×FLAG or pLJC2-UMPS (Y37A, R155A)-3×FLAG using the polyethylenimine method (Boussif et al., 1995). After 48 hr, cells were rinsed one time with ice-cold PBS and then immediately lysed with lysis buffer (1% Triton X-100, 40 mM Tris-HCl pH 7.5, 100 mM NaCl, 5 mM MgCl2, 1 tablet of EDTA-free protease inhibitor (Roche 11580800; per 25 mL buffer), 1 tablet of PhosStop phosphatase inhibitor (Roche 04906845001; per 10 mL buffer)). The cell lysates were cleared by centrifugation at 21130 g for 10 min at 4° C. For anti-FLAG immunoprecipitation, the FLAG-M2 affinity gel (Sigma A2220) was washed 3 times in lysis buffer. For each experiment, 500 μL of a 50/50 slurry of the affinity gel was then added to a pool of clarified lysates collected from 5 individual 15 cm culture dishes, and incubated with rotation for 3 hr at 4° C. Following immunoprecipitation, the beads were washed 2 times in lysis buffer and 3 times with lysis buffer containing 500 mM NaCl. Recombinant protein was then eluted in lysis buffer containing 1 mg/mL FLAG peptide for 1 hr at 4° C. The eluent was isolated by centrifugation at 100 g for 4 min at 4° C. (BioRad micro bio-spin column 732-6204), buffer exchanged (Amicon Ultra 30K NMWL) against 20 volumes of storage buffer (40 mM Tris-HCl pH 7.5, 100 mM NaCl, 1.5 mM dTT), mixed with glycerol (final concentration 15% v/v), and finally snap-frozen with liquid nitrogen and stored at −80° C. Protein samples were quantified using Bradford reagent and a BSA standard, and verified by 12% SDS-PAGE.
Reactions of each purified LIMPS variant (20-40 nM enzyme) with orotate (100 μM) and PRPP (300 μM) were carried out at 37° C. in 20 mM Tris-HCl pH 7.5, 5 mM Na2HPO4, […], 2 mM 2 mM dTT, 100 μM EDTA (adapted from (Han et al., 1995)), and various concentrations of putative inhibitors in a total volume of 100 μL. Following 20 min incubation, a 15 μL aliquot of the reaction mixture was removed and immediately added to 85 μL ice-cold 80% methanol for metabolite extraction, vortexed for 5 min, and centrifuged at 21130 g for 1 min at 4° C.
Stock solutions of 6-azauridine, 6-aza-UMP, 9-methyluric acid, allantoin, allopurinol, and uric acid were made up fresh at 200 mM in 1 M NaOH, and upon appropriate dilutions, had little effect on reaction pH.
An OMP chemical standard was not available.

K562 cells = assay: metabolite profiling of K562 cells (intracellular pyrimidine pathway metabolites); format: cell-based, human
Description: To determine which component(s) of HPLM^+dIFS affects the de novo pyrimidine synthesis pathway, K562 cells were cultured in HPLM^+dIFS derivatives lacking: (1) acetone, creatine, creatinine, formate, fructose, galactose, glutathione, glycerol, and hypoxanthine; (2) non-proteinogenic amino acids (8 metabolites); (3) water-soluble acids (8 metabolites); (4) urea; or (5) uric acid (FIG. 5A). […] HPLM^+dIFS contains uric acid at […], a concentration that is 40- and at least 500-fold greater than that of RPMI^+IFS and RPMI^+dIFS, respectively (FIG. 5C), and, importantly, its intracellular concentration reflects that of the corresponding culture medium (FIG. 5D).
To determine whether uric acid might cause inhibition of UMPS, an established UMPS inhibitor was studied to see if it had similar effects on the de novo pyrimidine biosynthesis pathway as uric acid in disclosed cells. […] Using LC/MS-based metabolite profiling, a species whose mass-to-charge ratio (m/z) matched the predicted m/z of allopurinol ribonucleotide was detected, and the magnitude correlated with the concentration of allopurinol in the media (FIG. 11D). Importantly, this species could be distinguished from its isomer, IMP, by their differing chromatographic retention times. […] However, a metabolite peak consistent with a putative uric acid ribonucleotide was not detected.
(§1) After 24 hr incubation, cells were centrifuged at 250 g for 5 min, resuspended in 1 mL ice-cold 0.9% sterile NaCl, and again centrifuged at 250 g for 5 min at 4° C. Metabolites were extracted in a 1 mL solution of 80% methanol containing 10 ng/mL phenylalanine-d8 as an internal standard. Following a 10 min vortex and centrifugation for […] 10 min at 4° C., samples were dried under nitrogen gas. Dried samples were stored at −80° C. and then resuspended in 100 μL water; 4 μL of each cell sample was injected for LC/MS analysis as described for profiling media samples. For all experiments, an additional culture replicate was set up identically and used for measuring cell number and volume, which were each measured using a Beckman Z2 Coulter Counter with a diameter setting of 8-30 μm.

[1] = system: certain cancer cell lines; details: Schwartz and Handschumacher, 1979; cited from earlier work
[2] = system: six hematological cancer cell lines; assay: metabolite profiling of six hematological cancer cell lines; format: cell-based, human; details: 350 μM uric acid added to RPMI+IFS, compared to RPMI+IFS
Description: To test the hypothesis that culturing cells in a medium that better mimics the metabolic composition of human plasma alters cellular metabolism compared to that in established media, the metabolite profiles of cells cultured in HPLM^+dIFS were compared to those in RPMI^+IFS or RPMI^+dIFS.
as §1

Which FUMP levels (NOMO1 cells; uric acid-containing HPLM+dIFS) does the source give for O=c1[nH]cc(F)c(=O)[nH]1 [5-FU, 5-Fluorouracil] here?
The FUMP levels was “below the limit of detection”.

What about the “intracellular abundances of FdUMP and 5-FU” value (NOMO1 cells; uric acid-containing HPLM+dIFS vs lacking uric acid) of the same compound?
Its value is “little effect”.

Which results are given for O=c1cnn([C@@H]2O[C@H](COP(=O)(O)O)[C@@H](O)[C@H]2O)c(=O)[nH]1 [6-aza-UMP]?
inhibition of the ODC domain of UMPS (ODC domain of UMPS): competitively inhibit the ODC domain of UMPS; UMP levels relative to reactions containing vehicle (recombinant UMPS; 6-aza-UMP at 50 μM): ~3%; UMP production by UMPS (recombinant UMPS): dose-dependently decreased UMP production by UMPS; abundance of OMP (recombinant UMPS): dramatically increased the abundance of OMP

With O=c1cnn([C@@H]2O[C@H](CO)[C@@H](O)[C@H]2O)c(=O)[nH]1 [6-azauridine] as the compound, how does the “direct inhibition of UMPS” value (recombinant UMPS) read?
Its value is “did not directly inhibit UMPS”.

With Cn1c(=O)[nH]c2c(=O)[nH]c(=O)[nH]c21 [9-methyluric acid] as the compound, how does the “levels of orotate, orotidine, or the other intermediates in the de novo pyrimidine biosynthesis pathway” value (K562 cells; 350 μM in HPLM+dIFS, compared to HPLM+dIFS lacking uric acid) read?
Its value is “did not alter the levels”.

What about the “direct inhibition of UMPS” value (recombinant UMPS) of the same compound?
The value was “did not directly inhibit UMPS”.

For NC(=O)NC1NC(=O)NC1=O (stereo not drawn) [allantoin], which “direct inhibition of UMPS” value (recombinant UMPS) is on record?
Its value is “did not directly inhibit UMPS”.

For O=c1[nH]cnc2c1cnn2C1O[C@H](COP(=O)(O)O)[C@@H](O)[C@H]1O (stereo partly drawn) [allopurinol ribonucleotide], which “inhibition of the ODC domain of UMPS” value (ODC domain of UMPS) is on record?
The value was “competitively inhibit the ODC domain of UMPS”.

Which results are given for Oc1ncnc2[nH]ncc12 [allopurinol]?
levels of carbamoylaspartate, dihydroorotate, orotate, orotidine, and OMP (K562 cells; HPLM+dIFS lacking uric acid, increasing concentrations of allopurinol): dose-dependently increased the levels; decrease in abundance of UTP (K562 cells; highest tested concentration of allopurinol): ~30%; direct inhibition of UMPS (recombinant UMPS): did not directly inhibit UMPS; sensitivity of cancer cell lines to 5-FU [1]: reduces the sensitivity of certain cancer cell lines to 5-FU

Which results are given for O=c1[nH]c(=O)c2[nH]c(=O)[nH]c2[nH]1 [uric acid]?
UTP abundance [2]: cell line-dependent effects on UTP abundance; orotate and orotidine levels [2]: greatly boosted orotate and orotidine levels; orotate and orotidine abundances (K562 cells; HPLM+dIFS containing increasing concentrations of uric acid): dose-dependently increased orotate and orotidine abundances; orotate and orotidine levels on removal of the component from HPLM+dIFS (K562 cells; dropout formulations of HPLM+dIFS): reduced orotate and orotidine levels to those of cells cultured in RPMI; accumulation of OMP (K562 cells; highest tested concentration (700 μM)): led to a detectable accumulation of OMP; direct inhibition of UMPS (recombinant UMPS): direct inhibitor of the ODC domain of UMPS; UMP production by UMPS (recombinant UMPS): dose-dependently inhibited UMP production by UMPS; abundance of OMP (recombinant UMPS): increased OMP; UMP levels relative to reactions containing vehicle (recombinant UMPS; uric acid at 1 mM): ~30%
